US8937048B2, “Anti-angiogenic compounds” (Covx Technologies Ireland, Limited, priority 2008, dated 2015)
Where a SMILES comes first, the peptide text is derived from it. Bridges are numbered along the chain shown (N, C = ends).

biological target: T1, recombinant human VEGF165 (Homo sapiens, UniProt P15692); test: VEGF peptide binding assay (competition ELISA, VEGF165 binding to coated VEGFR2/Fc)
T1 sequence (P15692 27-191 isoform P15692-4): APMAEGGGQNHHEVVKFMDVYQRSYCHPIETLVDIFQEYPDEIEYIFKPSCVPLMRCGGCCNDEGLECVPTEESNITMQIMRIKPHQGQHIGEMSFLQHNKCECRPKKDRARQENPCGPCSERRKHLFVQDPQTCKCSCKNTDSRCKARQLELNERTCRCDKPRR
Method: High-binding half-well 96-well plates (Costar #3690) were coated with recombinant human VEGFR2/Fc (50 ng/well) in 50 μl PBS, and incubated at 4° C. overnight. After washing the plates three times with 1× washing buffer (KPL Cat#50-65-00) and blocking with Superblock (Scytek #AAA500) at room temperature (RT) for 1 hour, VEGF-peptides of the invention were serially diluted (concentrations: 0.128-10,000 nM) in the presence of 25 ng/ml of recombinant human VEGF165 in […] Superblock, and were then added to the 96-well plates and incubated at RT for 1 hour. Peptides of the invention tested in this fashion were all capped at the amino terminus with a C(O)CH3 group and at the carboxyl terminus with a NH2 group. The plates were then washed three times with washing buffer, and a diluted (1:500) biotinylated anti-human VEGF antibody (R&D systems, Cat# BAF293) was added and incubated at RT for 2 hours. After washing the plates, streptavidin HRP conjugate (1:200 in Superblock) (R&D systems, Cat# DY998) was added to detect the bound anti-VEGF antibody, followed by addition of tetramethylbenzidine (TMB) substrate (Pierce, Cat#34021) for color development. The reaction was stopped with 2 M H2SO4. OD450 was measured using SpectraMax (Molecular Device) with a correction wavelength of 540 nm. The data were analyzed using Prism software. OD450 values were plotted as a function of the concentrations of the VEGF peptides. IC50 values, indicative of the potency of the VEGF peptides to inhibit VEGF-VEGFR2 interaction, were obtained using a sigmoid dose-response curve fit in Prism.

| Structure (SMILES) | IC50 |
| --- | --- |
| CC[C@H](C)[C@@H]1NC(=O)[C@H](CC(=O)O)NC(=O)[C@@H](NC(=O)[C@H](CC(N)=O)NC(=O)[C@@H]2CCCN2C(=O)[C@H](CCC(=O)O)NC(=O)[C@@H](NC(C)=O)C(C)C)CSSC[C@@H](C(=O)N[C@@H](Cc2ccccc2)C(=O)N[C@@H](CCC(=O)O)C(=O)N[C@@H](CCCNC(=N)N)C(=O)N[C@@H](CC(C)C)C(=O)N[C@@H](CCSC)C(=O)N[C@@H](CCCCN)C(N)=O)NC(=O)[C@H](CCC(=O)O)NC(=O)[C@H](Cc2c[nH]c3ccccc23)NC(=O)[C@H](C(C)C)NC(=O)[C@H](Cc2c[nH]c3ccccc23)NC(=O)[C@H](CCSC)NC(=O)[C@H](C(C)C)NC(=O)[C@H](Cc2c[nH]cn2)NC1=O [Compound 62, VEPNCDIHVMWVWECFERLMK] (Ac-VEPNCDIHVMWVWECFERLMK-NH2; disulfide 5-15 (inferred)) | 25 nM |
| CC[C@H](C)[C@@H]1NC(=O)[C@H](CC(=O)O)NC(=O)[C@@H](NC(=O)[C@H](CC(N)=O)NC(=O)[C@@H]2CCCN2C(=O)[C@H](CCC(=O)O)NC(=O)[C@@H](NC(C)=O)C(C)C)CSSC[C@@H](C(=O)N[C@@H](Cc2ccccc2)C(=O)N[C@@H](CCC(=O)O)C(=O)N[C@@H](CCCNC(=N)N)C(=O)N[C@@H](CC(C)C)C(=O)N[C@@H](Cc2ccc(O)cc2)C(=O)NCC(=O)NCC(=O)N[C@@H](Cc2ccccc2)C(N)=O)NC(=O)[C@H](CCC(=O)O)NC(=O)[C@H](Cc2c[nH]c3ccccc23)NC(=O)[C@H](C(C)C)NC(=O)[C@H](Cc2c[nH]c3ccccc23)NC(=O)[C@H](CCSC)NC(=O)[C@H](C(C)C)NC(=O)[C@H](Cc2c[nH]cn2)NC1=O [Compound 56, VEPNCDIHVMWVWECFERLYGGF] (Ac-VEPNCDIHVMWVWECFERLYGGF-NH2; disulfide 5-15 (inferred)) | 26.2 nM |
| CC[C@H](C)[C@@H]1NC(=O)[C@H](CC(=O)O)NC(=O)[C@@H](NC(=O)[C@H](CC(N)=O)NC(=O)[C@@H]2CCCN2C(=O)[C@H](CCC(=O)O)NC(=O)[C@@H](NC(C)=O)C(C)C)CSSC[C@@H](C(=O)N[C@@H](Cc2ccccc2)C(=O)N[C@@H](CCC(=O)O)C(=O)N[C@@H](CCCNC(=N)N)C(=O)N[C@@H](CC(C)C)C(=O)N[C@@H](Cc2ccc(O)cc2)C(=O)NCC(=O)NCC(N)=O)NC(=O)[C@H](CCC(=O)O)NC(=O)[C@H](Cc2c[nH]c3ccccc23)NC(=O)[C@H](C(C)C)NC(=O)[C@H](Cc2c[nH]c3ccccc23)NC(=O)[C@H](CCSC)NC(=O)[C@H](C(C)C)NC(=O)[C@H](Cc2c[nH]cn2)NC1=O [Compound 52, VEPNCDIHVMWVWECFERLYGG] (Ac-VEPNCDIHVMWVWECFERLYGG-NH2; disulfide 5-15 (inferred)) | 32.3 nM |
| CC[C@H](C)[C@@H]1NC(=O)[C@H](CC(=O)O)NC(=O)[C@@H](NC(=O)[C@H](CC(N)=O)NC(=O)[C@@H]2CCCN2C(=O)[C@H](CCC(=O)O)NC(=O)[C@@H](NC(C)=O)C(C)C)CSSC[C@@H](C(=O)N[C@@H](Cc2ccccc2)C(=O)N[C@@H](CCC(=O)O)C(=O)N[C@@H](CCCNC(=N)N)C(=O)N[C@@H](CC(C)C)C(=O)N[C@@H](Cc2ccc(O)cc2)C(=O)NCC(=O)N2CCC[C@H]2C(=O)N[C@@H](Cc2ccccc2)C(N)=O)NC(=O)[C@H](CCC(=O)O)NC(=O)[C@H](Cc2c[nH]c3ccccc23)NC(=O)[C@H](C(C)C)NC(=O)[C@H](Cc2c[nH]c3ccccc23)NC(=O)[C@H](CCSC)NC(=O)[C@H](C(C)C)NC(=O)[C@H](Cc2c[nH]cn2)NC1=O [Compound 77, VEPNCDIHVMWVWECFERLYGPF] (Ac-VEPNCDIHVMWVWECFERLYGPF-NH2; disulfide 5-15 (inferred)) | 1.8 nM |
| CC[C@H](C)[C@@H]1NC(=O)[C@H](CC(=O)O)NC(=O)[C@@H](NC(=O)[C@H](CC(N)=O)NC(=O)[C@@H]2CCCN2C(=O)[C@H](CCC(=O)O)NC(=O)[C@@H](NC(C)=O)C(C)C)CSSC[C@@H](C(=O)N[C@@H](Cc2ccccc2)C(=O)N[C@@H](CCC(=O)O)C(=O)N[C@@H](CCCNC(=N)N)C(=O)N[C@@H](CC(C)C)C(=O)N[C@@H](Cc2ccc(O)cc2)C(=O)NCC(N)=O)NC(=O)[C@H](CCC(=O)O)NC(=O)[C@H](Cc2c[nH]c3ccccc23)NC(=O)[C@H](C(C)C)NC(=O)[C@H](Cc2c[nH]c3ccccc23)NC(=O)[C@H](CCSC)NC(=O)[C@H](C(C)C)NC(=O)[C@H](Cc2c[nH]cn2)NC1=O [Compound 47, VEPNCDIHVMWVWECFERLYG] (Ac-VEPNCDIHVMWVWECFERLYG-NH2; disulfide 5-15 (inferred)) | 43.3 nM |
| CC[C@H](C)[C@@H]1NC(=O)[C@H](CC(=O)O)NC(=O)[C@@H](NC(=O)[C@H](CC(N)=O)NC(=O)[C@@H]2CCCN2C(=O)[C@H](CCC(=O)O)NC(=O)[C@@H](NC(C)=O)C(C)C)CSSC[C@@H](C(=O)N[C@@H](Cc2ccccc2)C(=O)N[C@@H](CCC(=O)O)C(=O)N[C@@H](CCCNC(=N)N)C(=O)N[C@@H](CC(C)C)C(=O)N[C@@H](Cc2ccc(O)cc2)C(=O)NCC(=O)N[C@@H](CC(C)C)C(=O)N[C@@H](CCC(=O)O)C(N)=O)NC(=O)[C@H](CCC(=O)O)NC(=O)[C@H](Cc2c[nH]c3ccccc23)NC(=O)[C@H](C(C)C)NC(=O)[C@H](Cc2c[nH]c3ccccc23)NC(=O)[C@H](CCSC)NC(=O)[C@H](C(C)C)NC(=O)[C@H](Cc2c[nH]cn2)NC1=O [Compound 75, VEPNCDIHVMWVWECFERLYGLE] (Ac-VEPNCDIHVMWVWECFERLYGLE-NH2; disulfide 5-15 (inferred)) | 3 nM |
| CC[C@H](C)[C@@H]1NC(=O)[C@H](CC(=O)O)NC(=O)[C@@H](NC(=O)[C@H](CC(N)=O)NC(=O)[C@@H]2CCCN2C(=O)[C@H](CCC(=O)O)NC(=O)[C@@H](NC(C)=O)C(C)C)CSSC[C@@H](C(=O)N[C@@H](Cc2ccccc2)C(=O)N[C@@H](CCC(=O)O)C(=O)N[C@@H](CCCNC(=N)N)C(=O)N[C@@H](CC(C)C)C(=O)N[C@@H](Cc2ccc(O)cc2)C(=O)NCC(=O)NCC(=O)NCC(N)=O)NC(=O)[C@H](C(C)C)NC(=O)[C@H](Cc2c[nH]c3ccccc23)NC(=O)[C@H](C(C)C)NC(=O)[C@H](Cc2c[nH]c3ccccc23)NC(=O)[C@H](CCSC)NC(=O)[C@H](C(C)C)NC(=O)[C@H](Cc2c[nH]cn2)NC1=O [Compound 43, VEPNCDIHVMWVWVCFERLYGGG] (Ac-VEPNCDIHVMWVWVCFERLYGGG-NH2; disulfide 5-15) | 66 nM |
| CC[C@H](C)[C@@H]1NC(=O)[C@H](CC(=O)O)NC(=O)[C@@H](NC(=O)[C@H](CC(N)=O)NC(=O)[C@@H]2CCCN2C(=O)[C@H](CCC(=O)O)NC(=O)[C@@H](NC(C)=O)C(C)C)CSSC[C@@H](C(=O)N[C@@H](Cc2ccccc2)C(=O)N[C@@H](CCC(=O)O)C(=O)N[C@@H](CCCNC(=N)N)C(=O)N[C@@H](CC(C)C)C(=O)N[C@@H](Cc2ccc(O)cc2)C(=O)NCC(=O)NCC(=O)NCC(N)=O)NC(=O)[C@H](CCC(=O)O)NC(=O)[C@H](Cc2c[nH]c3ccccc23)NC(=O)[C@H](C(C)C)NC(=O)[C@H](Cc2c[nH]c3ccccc23)NC(=O)[C@H](CCSC)NC(=O)[C@H](C(C)C)NC(=O)[C@H](Cc2c[nH]cn2)NC1=O [Compound 61, VEPNCDIHVMWVWECFERLYGGG] (Ac-VEPNCDIHVMWVWECFERLYGGG-NH2; disulfide 5-15 (inferred)) | 23.6 nM |
| CC[C@H](C)[C@@H]1NC(=O)[C@H](CC(=O)O)NC(=O)[C@@H](NC(=O)[C@H](CC(N)=O)NC(=O)[C@@H]2CCCN2C(=O)[C@H](CCC(=O)O)NC(=O)[C@@H](NC(C)=O)C(C)C)CSSC[C@@H](C(=O)N[C@@H](Cc2ccccc2)C(=O)N[C@@H](CCC(=O)O)C(=O)N[C@@H](CCCNC(=N)N)C(=O)N[C@@H](CC(C)C)C(=O)N[C@@H](CCSC)C(=O)N[C@@H](CCCCN)C(N)=O)NC(=O)[C@H](C(C)C)NC(=O)[C@H](Cc2c[nH]c3ccccc23)NC(=O)[C@H](C(C)C)NC(=O)[C@H](Cc2c[nH]c3ccccc23)NC(=O)[C@H](CCSC)NC(=O)[C@H](C(C)C)NC(=O)[C@H](Cc2c[nH]cn2)NC1=O [Compound 38, VEPNCDIHVMWVWVCFERLMK] (Ac-VEPNCDIHVMWVWVCFERLMK-NH2; disulfide 5-15 (inferred)) | 92.6 nM |
| CC[C@H](C)[C@@H]1NC(=O)[C@H](CC(=O)O)NC(=O)[C@@H](NC(=O)[C@H](CC(N)=O)NC(=O)[C@@H]2CCCN2C(=O)[C@H](CCC(=O)O)NC(=O)[C@@H](NC(C)=O)C(C)C)CSSC[C@@H](C(=O)N[C@@H](Cc2ccccc2)C(=O)N[C@@H](CCC(=O)O)C(=O)N[C@@H](CCCNC(=N)N)C(=O)N[C@@H](CC(C)C)C(N)=O)NC(=O)[C@H](CCC(=O)O)NC(=O)[C@H](Cc2c[nH]c3ccccc23)NC(=O)[C@H](CCC(=O)O)NC(=O)[C@H](Cc2c[nH]c3ccccc23)NC(=O)[C@H](CCSC)NC(=O)[C@H](C(C)C)NC(=O)[C@H](Cc2c[nH]cn2)NC1=O [Compound 34, V-E-P-N-C-D-I-H-V-M-W-E-W-E-C-F-E-R-L] (Ac-VEPNCDIHVMWEWECFERL-NH2; disulfide 5-15 (inferred)) | 188 nM |
